Values joined by “and” are separate entries in the source; they are usually repeats but may differ in a detail not shown here. Equal entries are not always repeated.
What was measured:
Assay in all cases: In vivo anti-tumor study, s.c. tumor in athymic nu/nu female mice, percent inhibition of tumor growth
[1] = tested on: HTB-177 human non small cell lung cancer cells; conditions: po, x3
Method: (§1) Various tumor cells (5×10^5 to 8×10^6) were innoculated subcutaneously into the flank of 5-6 week old athymic nu/nu female mice. Three tumor cell models were used: mouse fibroblasts transformed with H-Ras; HTB-177 human non small cell lung cancer cells or LOX human melanoma cells. Animals were treated with beta cyclodextran vehicle only or compounds in vehicle twice a day (BID) or once a day (QD) for 7 days per week for 1 (×1), 2 (×2) or 3 (×3) weeks. The percent inhibition of tumor growth relative to vehicle controls were determined by tumor measurements.

LOX human melanoma cells = conditions: po, BID, x1
Method: as §1

[2] = tested on: mouse fibroblasts transformed with H-Ras; conditions: po, x2
Method: as §1

Cc1nccn1CC1=Cc2cccnc2C(N2CCN(C(=O)Nc3ccc(C#N)cc3)CC2)c2ccc(Cl)cc21 (stereo not shown) [(372)]
Average % Tumor Inhibition ([1]; 20 MPK, BID): 43% and 47% | Average % Tumor Inhibition ([1]; 40 MPK, BID): 79% | Average % Tumor Inhibition ([1]; 40 MPK, QD): 11% | Average % Tumor Inhibition ([1]; 60 MPK, BID): 87% | Average % Tumor Inhibition ([1]; 80 MPK, BID): 96% | Average % Tumor Inhibition ([1]; 120 MPK, QD): 54% | Average % Tumor Inhibition (LOX human melanoma cells; 15 MPK): 20.9% | Average % Tumor Inhibition (LOX human melanoma cells; 30 MPK): 54.8% | Average % Tumor Inhibition (LOX human melanoma cells; 60 MPK): 90.3% | Average % Tumor Inhibition ([2]; 6.6 MPK, BID): 19% | Average % Tumor Inhibition ([2]; 10 MPK, BID): 70% | Average % Tumor Inhibition ([2]; 20 MPK, BID): 59% | Average % Tumor Inhibition ([2]; 20 MPK, QD): 55% | Average % Tumor Inhibition ([2]; 40 MPK, BID): 92% | Average % Tumor Inhibition ([2]; 60 MPK, BID): 98% | Average % Tumor Inhibition ([2]; 80 MPK, QD): 91%

— US7342016B2, “Farnesyl protein transferase inhibitors as antitumor agents” (Schering Corporation, priority 2000, dated 2008)
